Experimental data from US20140242019A1, “COMPOSITION FOR PREVENTING HAIR LOSS AND GROWING HAIR COMPRISING HYDROXYDIHYDROBOVOLIDE” (Pukyong National University Industry-University Cooperation …, priority 2013, published 2014).
“Also recorded” adds a separate entry of the source.

Tests used:
[1] = test system: hair outer root sheath cells; experiment: MTT cell proliferation / survival rate in hair outer root sheath cells; type: cell-based, human; conditions: 24 h
Method: (§1) All of the tests were performed after obtaining approval of Ethics Commission of Medical College, Kyungpook National University. As samples of hairs, hairs in intact state were collected from scalps in the backs of the heads of male hair transplant patients. All of the hair samples were used with the consent of hair transplant patient who provides the samples. The area of subcutaneous fat of scalp including a hair follicle was isolated from the hair sample, and then the hair follicle was isolated by using a binocular microscope. In order to obtain hair papilla cells, the hair papilla was isolated from the hair follicle, and then shifted to a dish that was coated with bovine type I collagen. Then, the hair papilla in the dish was cultured (in an incubator at 37° C. and 5% CO2) in a DEME (Gibco BRL, Gaithersburg. Md., USA) medium including 20% heat inactivated fetal bovine serum including penicillin (100 U/mL) and streptomycin ([…]). […]
(§2) It was investigated whether or not the hydroxydihydrobovolide compound according to the present invention has an effect on cell proliferation in hair follicle cells and cells in the outer root sheath, in which the cells were closely associated with hair growth. […] After 30 minutes, absorbance of the cells was measured (570 nm).

[2] = test system: human hair follicle dermal papilla cells; experiment: MTT cell proliferation / survival rate in human hair follicle dermal papilla cells; type: cell-based; conditions: 24 h
Method: as §1, §2

human hair tissues = experiment: Evaluation of hair growth using human hair tissue culture; type: cell-based; conditions: 5 μM
Method: The human hair tissues were supplied from an immunology laboratory in Kyungpook National University. The human hair tissues were cultured in an incubator at 37° C. and CO2 by using Williams E media (Sigma, USA) including 2 mM L-glutamin, 100 U/mL of streptomycin, and 10 ng/ml of hydrocortisone. The test materials with various concentrations were cultured for 6 days, and the lengths of hairs were measured on the third days and sixth day.

## CCCCCC1(O)OC(=O)C(C)=C1C (stereo not drawn) [hydroxydihydrobovolide, 5-hydroxy-3,4-dimethyl-5-pentylfuran-2(5H)-one]
[1]; 0.5 μM, vs control group, highest effect
  cell proliferation increased by: 156%
[1]; 0.005 to 0.5 μM
  cell proliferation compared with control group: significantly higher cell proliferation rate than the control group; also recorded: significantly higher than that of the control group
[2]; 0.05 μM, vs untreated control group, p<0.05
  cell proliferation increased by: 144%
[2]; 0.005 to 0.5 μM
  effect on cell proliferation compared with control group: significant cell proliferation effect; also recorded: significant effects on cell proliferation
Human hair tissues; day 3 of culture
  length of hair on the third day: 0.62 mm
Human hair tissues; day 6 of culture
  length of hair on the sixth day: 1.38 mm
